Data from patent US11905230B2, “Phenoxyacetic acid derivatives, preparation method thereof and use thereof as medicament” (CHINA PHARMACEUTICAL UNIVERSITY, priority 2017, dated 2024).

Experiments:
hGPR40 receptor = hGPR40 receptor (Homo sapiens (Human), UniProt O14842); assay: agonistic activity on hGPR40-CHO stably transfected cells (Fluo-4 / FLIPR); format: cell-based; settings: for activation at 0.1 µM: 100 nM, relative to linoleic acid well; for EC50: mean ± SD of three determinations
Method: Experimental example 1 The agonistic activity of the compounds of the present invention on hGPR40-CHO stably transfected cells
The present invention used the following method to determine the GPR40 agonistic activity of the compounds of the invention:
hGPR40-CHO stably transfected cells were seeded into a 96-well plate at a density of 3×10^4/well, and incubated overnight in a 37° C., 5% CO2 cell incubator; the medium was discarded, 100 μl of HBSS was added to each well, and 100 μl of Fluo-4 dye solution containing Probenecid was added and incubated at 37° C. for 90 min. After the incubation, the Fluo-4 dye solution was sucked out, 100 μl of HBSS buffer was added, and the dye was washed away; 100 μl of HBSS containing Probenecid was added to each well, and incubated at 37° C. for 10 min; different concentrations of drugs were added to each well of the 96-well plate and FLIPR (Molecular Devices) was used for readings according to the parameter setting table. The experimental results were analyzed.

[1] = Evaluation of hepatotoxicity: serum ALT, AST and TBIL after 4 weeks of dosing; format: in vivo; settings: serum, once a day for consecutive 4 weeks; x ± SD, n = 6
Method: Experimental example 3 Evaluation of hepatotoxicity of the compounds of the present invention:
The test compounds were administered once a day for consecutive 4 weeks, blood was taken, and the contents of alanine aminotransferase (ALT), aspartate aminotransferase (AST), and total bilirubin (TBIL) were measured.

normal mice = assay: Oral glucose tolerance test (OGTT) in normal mice; format: in vivo, Kunming mice; settings: for effect on oral glucose tolerance in mice (in words): OGTT in normal mice, 20 mg/kg; for blood glucose level at 15 min / blood glucose level at 0 min / blood glucose level at 30 min / blood glucose level at 60 min / blood glucose level at 120 min: OGTT, 20 mg/kg by gavage, n = 8, in mmol/L (unit assumed); for blood glucose level at 15 min: 15 min after glucose load; for blood glucose level at 0 min: 30 min after dosing, before glucose load; for blood glucose level at 30 min: 30 min after glucose load; for blood glucose level at 60 min: 60 min after glucose load; for blood glucose level at 120 min: 120 min after glucose load
Method: Experimental example 2 In vivo hypoglycemic activity of the compounds of the present invention can be determined by using an assay system as described below:
The mice were fasted for 12 hours before experiment and water was taken freely, each group was administrated by gavage, blood was taken from the tail, and the blood glucose level was measured (recorded as −30 min).

hGPR40 receptor, sequence (O14842 whole entry): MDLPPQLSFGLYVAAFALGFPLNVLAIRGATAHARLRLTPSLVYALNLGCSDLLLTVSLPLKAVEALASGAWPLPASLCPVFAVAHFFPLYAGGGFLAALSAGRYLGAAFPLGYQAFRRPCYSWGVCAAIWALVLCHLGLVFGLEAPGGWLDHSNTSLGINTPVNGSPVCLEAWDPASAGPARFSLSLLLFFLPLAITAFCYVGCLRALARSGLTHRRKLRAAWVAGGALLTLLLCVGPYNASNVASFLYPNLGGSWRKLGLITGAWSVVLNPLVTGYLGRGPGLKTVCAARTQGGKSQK

Row | melting point [°C] | activation at 0.1 µM (hGPR40 receptor) [%] | SMILES | further results
1 | 128 to 131 | 59 | CCOCOc1cc(C)c(-c2cccc(CNc3ccc(OCC(=O)O)cc3)c2)c(C)c1 [Compound I-41, 2-(4-((4′-(2-ethoxymethoxy)-2′,6′-dimethyl-[1,1′-biphenyl]-3-methylene)amino)phenoxy)acetic acid] | 
2 | 131 to 134 | 65 | COc1cc(C)c(-c2cccc(CNc3ccc(OCC(=O)O)cc3)c2)c(C)c1 [Compound I-18, 2-(4-((4′-methoxy-2′,6′-dimethyl-[1,1′-biphenyl]-3-methylene)amino)phenoxy)acetic acid] | 
3 | 101 to 104 | 82 | Cc1ccccc1-c1cccc(CNc2ccc(OCC(=O)O)cc2)c1 [Compound I-25, 2-(4-((2′-methyl-[1,1′-biphenyl]-3-methylene)amino)phenoxy)acetic acid] | ALT (IU/L) [1]: 51.78 ± 4.5 IU/L; AST (IU/L) [1]: 116.54 ± 8.9 IU/L; TBIL (IU/L) [1]: 2.69 ± 0.4 IU/L; effect on oral glucose tolerance in mice (in words) (normal mice): significantly improve oral glucose tolerance; blood glucose level at 15 min (normal mice): 8.47 ± 0.45; blood glucose level at 0 min (normal mice): 4.48 ± 0.39; blood glucose level at 30 min (normal mice): 7.23 ± 0.39; blood glucose level at 60 min (normal mice): 5.11 ± 0.29; blood glucose level at 120 min (normal mice): 4.29 ± 0.39; EC50 (hGPR40 receptor): 17.3 ± 3.3 nM
4 | 111 to 112 | 61 | O=C(O)COc1ccc(NCc2cccc(-c3ccccc3F)c2)cc1 [Compound I-26, 2-(4-((2′-fluoro-[1,1′-biphenyl]-3-methylene)amino)phenoxy)acetic acid] | 
5 | 111 to 114 | 69 | Cc1ccc(-c2cccc(CNc3ccc(OCC(=O)O)cc3)c2)c(Cl)c1 [Compound I-27, 2-(4-((2′-chloro-4′-methyl-[1,1′-biphenyl]-3-methylene)amino)phenoxy)acetic acid] | 
6 | 132 to 135 | 62 | Cc1cc(OC(C)C)ccc1-c1cccc(CNc2ccc(OCC(=O)O)cc2)c1 [Compound I-23] | 
7 | 136 to 138 | 64 | COCOc1cc(C)c(-c2cccc(CNc3ccc(OCC(=O)O)c(F)c3)c2)c(C)c1 [Compound I-38, 2-(2-fluoro-4-((4′-(2-methoxymethoxy)-2′,6′-dimethyl-[1,1′-biphenyl]-3-methylene)amino)phenoxy)acetic acid] | 
8 | 127 to 130 | 64 | Cc1cc(OC(F)(F)F)cc(C)c1-c1cccc(CNc2ccc(OCC(=O)O)c(F)c2)c1 [Compound I-34, 2-(4-((4′-trifluoromethoxy-2′,6′-dimethyl-[1,1′-biphenyl]-3-methylene)amino)-2-fluorophenoxy)acetic acid] | 
9 | 134 to 137 | 65 | Cc1cc(OC(C)C)ccc1-c1cccc(CNc2ccc(OCC(=O)O)c(F)c2)c1 [Compound I-22] | 
10 | 123 to 125 | 78 | Cc1cc(OC(F)(F)F)ccc1-c1cccc(CNc2ccc(OCC(=O)O)c(F)c2)c1 [Compound I-35, 2-(4-((4′-trifluoromethoxy-2′-methyl-[1,1′-biphenyl]-3-methylene)amino)2-fluorophenoxy)acetic acid] | 
11 | 137 to 139 | 56 | CCOCCOc1cc(C)c(-c2cccc(CNc3ccc(OCC(=O)O)c(F)c3)c2)c(C)c1 [Compound I-36, 2-(2-fluoro-4-((4′-(2-ethoxyethoxy)-2′,6′-dimethyl-[1,1′-biphenyl]-3-methylene)amino)phenoxy)acetic acid] | 
12 | 121 to 124 | 75 | COc1ccc(-c2cccc(CNc3ccc(OCC(=O)O)cc3)c2)c(C)c1 [Compound I-21] | 
13 | 133 to 136 | 50 | CCOCCOc1cc(C)c(-c2cccc(CNc3ccc(OCC(=O)O)cc3)c2)c(C)c1 [Compound I-37, 2-(4-((4′-(2-ethoxyethoxy)-2′,6′-dimethyl-[1,1′-biphenyl]-3-methylene)amino)phenoxy)acetic acid] | 
14 | 137 to 140 | 45 | N#Cc1ccccc1-c1cccc(CNc2ccc(OCC(=O)O)c(F)c2)c1 [Compound I-7, 2-(4-((2′-Nitrile-[1,1′-biphenyl]-3-methylene)amino)-2-fluorophenoxy)acetic acid] | 
15 | 136 to 138 |  | Cc1cc(OC2CCCCC2)cc(C)c1-c1cccc(CNc2ccc(OCC(=O)O)c(F)c2)c1 [Compound I-44, 2(2-fluoro-4-(((4′-(cyclohexyloxy)-2′,6′-dimethyl-[1,1′-biphenyl]-3-yl)methyl)amino)phenoxy)acetic acid] | 
16 | 72 to 73 | 54 | Cc1noc(C)c1-c1cccc(CNc2ccc(OCC(=O)O)c(F)c2)c1 [Compound I-14, 2-(4-((3-(3,5-dimethylisoxazol-4-yl)benzyl)amino)-2-fluorophenoxy)acetic acid] | 
17 | 136 to 139 | 63 | CCOCOc1cc(C)c(-c2cccc(CNc3ccc(OCC(=O)O)c(F)c3)c2)c(C)c1 [Compound I-40, 2-(2-fluoro-4-((4′-(2-ethoxymethoxy)-2′,6′-dimethyl-[1,1′-biphenyl]-3-methylene)amino)phenoxy)acetic acid] | 
18 | 107 to 110 | 46 | O=C(O)COc1ccc(NCc2cccc(-c3ccccc3OC(F)(F)F)c2)cc1 [Compound I-32, 2-(4-((2′-trifluoromethoxy-[1,1′-biphenyl]-3-methylene)amino)phenoxy)acetic acid] | 
19 | 124 to 126 | 80 | O=C(O)COc1ccc(NCc2cccc(-c3ccccc3Cl)c2)cc1 [Compound I-24, 2-(4-((2′-chloro-[1,1′-biphenyl]-3-methylene)amino)phenoxy)acetic acid] | ALT (IU/L) [1]: 52.68 ± 5.7 IU/L; AST (IU/L) [1]: 116.78 ± 12.4 IU/L; TBIL (IU/L) [1]: 2.56 ± 0.2 IU/L; effect on oral glucose tolerance in mice (in words) (normal mice): significantly improve oral glucose tolerance; blood glucose level at 15 min (normal mice): 9.22 ± 0.57; blood glucose level at 0 min (normal mice): 4.39 ± 0.34; blood glucose level at 30 min (normal mice): 8.04 ± 0.49; blood glucose level at 60 min (normal mice): 5.29 ± 0.34; blood glucose level at 120 min (normal mice): 4.33 ± 0.33; EC50 (hGPR40 receptor): 18.6 ± 2.7 nM
20 | 132 to 134 | 60 | COCOc1cc(C)c(-c2cccc(CNc3ccc(OCC(=O)O)cc3)c2)c(C)c1 [Compound I-39, 2-(4-((4′-(2-methoxymethoxy)-2′,6′-dimethyl-[1,1′-biphenyl]-3-methylene)amino)phenoxy)acetic acid] | 
21 | 132 to 135 |  | CCCCCCOc1cc(C)c(-c2cccc(CNc3ccc(OCC(=O)O)c(F)c3)c2)c(C)c1 [Compound I-42, 2(2-fluoro-4-(((4′-(hexyloxy)-2′,6′-dimethyl-[1,1′-biphenyl]-3-yl)methyl)amino)phenoxy)acetic acid] | 
22 | 111 to 113 | 50 | O=C(O)COc1ccc(NCc2cccc(-c3ccccc3OC(F)(F)F)c2)cc1F [Compound I-33] | 
23 | 95 to 96 | 53 | COc1ccccc1-c1cccc(CNc2ccc(OCC(=O)O)c(F)c2)c1 [Compound I-6, 2-(4-((2′-methoxy-[1,1′-biphenyl]-3-methylene)amino)-2-fluorophenoxy)acetic acid] | 
24 | 130 to 132 |  | CCCCCCOc1cc(C)c(-c2cccc(CNc3ccc(OCC(=O)O)cc3)c2)c(C)c1 [Compound I-43, 2(4-(((4′-(hexyloxy)-2′,6′-dimethyl-[1,1′-biphenyl]-3-yl)methyl)amino)phenoxy)acetic acid] | 
